Among the data in patent publication US20080242683A1, “Organic Compounds” (priority 2005, published 2008) are Ki values, retold here.

The target in the experiment is adenosine A2A receptor (Homo sapiens, UniProt P29274). The experiment can be described thus: adenosine A2A receptor agonist assay (method of Murphree et al.). The class given is binding. To be noted: Mol Pharmacol 61, 455-462 (2002). The text has this: Compounds of formula (I) and their pharmaceutically acceptable salts are useful as pharmaceuticals. In particular, they activate the adenosine A2A receptor, i.e., they act as A2A receptor agonists.

As a reminder, the Ki is the equilibrium dissociation constant of an inhibitor or competing ligand from its target.

Where a name gives a salt, the structure may show the parent alone.

adenosine A2A receptor, sequence (P29274 whole entry): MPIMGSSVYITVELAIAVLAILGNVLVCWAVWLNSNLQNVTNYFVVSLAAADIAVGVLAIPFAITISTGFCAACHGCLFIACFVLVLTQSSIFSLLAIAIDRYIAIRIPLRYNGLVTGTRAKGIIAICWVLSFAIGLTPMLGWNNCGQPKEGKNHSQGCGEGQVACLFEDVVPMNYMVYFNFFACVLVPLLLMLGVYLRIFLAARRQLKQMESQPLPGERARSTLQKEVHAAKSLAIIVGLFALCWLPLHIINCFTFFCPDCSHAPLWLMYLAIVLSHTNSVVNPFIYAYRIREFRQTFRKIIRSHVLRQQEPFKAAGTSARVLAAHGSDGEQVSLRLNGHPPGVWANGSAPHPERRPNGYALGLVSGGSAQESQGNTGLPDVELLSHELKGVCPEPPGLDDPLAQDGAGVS

In turn, `N[C@@H]1CCN(c2nc(NCC(c3ccccc3)c3ccccc3)c3ncn([C@@H]4O[C@H](CO)[C@@H](O)[C@H]4O)c3n2)C1` [Example 7, (2R,3R,4S,5R)-2-[2-((R)-3-Amino-pyrrolidin-1-yl)-6-(2,2-diphenyl-ethylamino)-purin-9-yl]-5-hydroxymethyl-tetrahydro-furan-3,4-diol trifluoroacetate] showed a Ki of 190 nM.

Turning to `O=C(NC1CCN(c2ccccn2)CC1)N[C@@H]1CCN(c2nc(NCC(c3ccccc3)c3ccccc3)c3ncn([C@@H]4O[C@H](CO)[C@@H](O)[C@H]4O)c3n2)C1` [Example 9, 1-{(R)-1-[9-((2R,3R,4S,5R)-3,4-Dihydroxy-5-hydroxymethyl-tetrahydro-furan-2-yl)-6-(2,2-diphenyl-ethylamino)-9H-purin-2-yl]-pyrrolidin-3-yl}-3-(3,4,5,6-tetrahydro-2H-[1,2′]bipyridinyl-4-yl)-urea trifluoroacetate], the Ki is 160 nM.

`CCn1nnc([C@H]2O[C@@H](n3cnc4c(NCCc5ccc(S(N)(=O)=O)cc5)nc(N5CC[C@@H](NC(=O)N[C@@H]6CCNC6)C5)nc43)[C@H](O)[C@@H]2O)n1` [Example 108, 4-(2-{9-[(2R,3R,4S,5R)-5-(2-Ethyl-2H-tetrazol-5-yl)-3,4-dihydroxy-tetrahydro-furan-2-yl]-2-[(R)-3-((R)-3-pyrrolidin-3-ylureido)-pyrrolidin-1-yl]-9H-purin-6-ylamino}-ethyl)-benzenesulfonamide trifluoroacetate] displayed a Ki of 5 nM.

`O=C(N[C@@H]1CCNC1)N[C@@H]1CCN(c2nc(NCC(c3ccccc3)c3ccccc3)c3ncn([C@@H]4O[C@H](CO)[C@@H](O)[C@H]4O)c3n2)C1` [Example 11, 1-{(R)-1-[9-((2R,3R,4S,5R)-3,4-Dihydroxy-5-hydroxymethyl-tetrahydro-furan-2-yl)-6-(2,2-diphenyl-ethylamino)-9H-purin-2-yl]-pyrrolidin-3-yl}-3-(R)-pyrrolidin-3-yl-urea trifluoroacetate] yielded a Ki of 12 nM.

Turning to `OC[C@H]1O[C@@H](n2cnc3c(NCC(c4ccccc4)c4ccccc4)nc(N4CC[C@H](c5ccc(F)cc5)C4)nc32)[C@H](O)[C@@H]1O` [Example 2, (2R,3R,4S,5R)-2-{6-(2,2-diphenyl-ethylamino)-2-[(R)-3-(4-fluoro-phenyl)-pyrrolidin-1-yl]-purin-9-yl}-5-hydroxymethyl-tetrahydro-furan-3,4-diol trifluoroacetate], the Ki came out at 610 nM.

`OC[C@H]1O[C@@H](n2cnc3c(NCC(c4ccccc4)c4ccccc4)nc(N4CC[C@@H](O)C4)nc32)[C@H](O)[C@@H]1O` [Example 13, (2R,3R,4S,5R)-2-[6-(2,2-diphenyl-ethylamino)-2-((R)-3-hydroxy-pyrrolidin-1-yl)-purin-9-yl]-5-hydroxymethyl-tetrahydro-furan-3,4-diol] showed a Ki of 54 nM.

Compound `CCn1nnc(C2OC(n3cnc4c(NCC(c5ccc(O)cc5)c5ccc(O)cc5)nc(N5CCC(NC(=O)c6ccc(N7CCOCC7)nc6)C5)nc43)C(O)C2O)n1` [Example 77, N—((R)-1-{6-[2,2-bis-(4-Hydroxy-phenyl)-ethylamino]-g-[(2R,3R,4S,5R)-5-(2-ethyl-2H-tetrazol-5-yl)-3,4-dihydroxy-tetrahydro-furan-2-yl]-9H-purin-2-yl}-pyrrolidin-3-yl)-6-morpholin-4-yl-nicotinamide trifluoroacetate] had a Ki of 6 nM.

On to `O=C(N[C@@H]1CCN(C(=O)NC2CCN(C(=O)OCc3ccccc3)CC2)C1)N[C@@H]1CCN(c2nc(NCC(c3ccccc3)c3ccccc3)c3ncn([C@@H]4O[C@H](CO)[C@@H](O)[C@H]4O)c3n2)C1` [Example 24, 4-{[(R)-3-(3-{(R)-1-[9-((2R,3R,4S,5R)-3,4-Dihydroxy-5-hydroxymethyl-tetrahydro-furan-2-yl)-6-(2,2-diphenyl-ethylamino)-9H-purin-2-yl]-pyrrolidine-3-yl}-ureido)-pyrrolidine-1-carbonyl]-amino}-piperidine-1-carboxylic acid benzyl ester trifluoroacetate], for which affinity was put at a Ki of 59 nM.

For the compound `CCc1cc([C@H]2O[C@@H](n3cnc4c(N[C@H](CO)Cc5ccccc5)nc(N5CC[C@@H](N6CCCC6)C5)nc43)[C@H](O)[C@@H]2O)on1` [Example 65, (2R,3R,4S,5S)-2-[(R)-2-[1,3′]Bipyrrolidinyl-1′-yl-6-((S)-1-hydroxymethyl-2-phenyl-ethylamino)-purin-9-yl]-5-(3-ethyl-isoxazol-5-yl)-tetrahydro-furan-3,4-diol], the Ki worked out at 2 nM.

As to `CN(C)[C@@H]1CCN(c2nc(NCC(c3ccccc3)c3ccccc3)c3ncn([C@@H]4O[C@H](CO)[C@@H](O)[C@H]4O)c3n2)C1` [Example 22, (2R,3R,4S,5R)-2-[2-((R)-3-dimethylamino-pyrrolidin-1-yl)-6-(2,2-diphenyl-ethylamino)-purin-9-yl]-5-hydroxymethyl-tetrahydro-furan-3,4-diol trifluoroacetate], the affinity, expressed as Ki, was 0.5 nM.

Regarding `CCn1nnc([C@H]2O[C@@H](n3cnc4c(NCC(c5ccccc5)c5ccccc5)nc(N5CC[C@@H](NC(=NCc6ccccn6)NC#N)C5)nc43)[C@H](O)[C@@H]2O)n1` [Example 122, N—((R)-1-{6-(2,2-Diphenyl-ethylamino)-9-[(2R,3R,4S,5R)-5-(2-ethyl-2H-tetrazol-5-yl)-3,4-dihydroxy-tetrahydro-furan-2-yl]-9H-purin-2-yl}-pyrrolidin-3-yl)-N′-cyano-N″-pyridin-2-ylmethyl-guanidine], the Ki turned out to be 4 nM.
